# Laboratory results taken from publication PMC5587286, “Direct versus indirect actions of ghrelin on hypothalamic NPY neurons” (PLoS ONE, 2017).
# How the values were obtained:
# [1] = tested on: NPY-GFP neurons in hypothalamic slices; format: cell-based, mice
# isolated SUR1-/- neurons = format: cell-based, mice
# [2] = molecular target: growth hormone secretagogue receptor (mouse (endogenous in NPY-GFP neurons)) (UniProt Q99P50)
# Chain of growth hormone secretagogue receptor (mouse (endogenous in NPY-GFP neurons)) (Q99P50 whole entry): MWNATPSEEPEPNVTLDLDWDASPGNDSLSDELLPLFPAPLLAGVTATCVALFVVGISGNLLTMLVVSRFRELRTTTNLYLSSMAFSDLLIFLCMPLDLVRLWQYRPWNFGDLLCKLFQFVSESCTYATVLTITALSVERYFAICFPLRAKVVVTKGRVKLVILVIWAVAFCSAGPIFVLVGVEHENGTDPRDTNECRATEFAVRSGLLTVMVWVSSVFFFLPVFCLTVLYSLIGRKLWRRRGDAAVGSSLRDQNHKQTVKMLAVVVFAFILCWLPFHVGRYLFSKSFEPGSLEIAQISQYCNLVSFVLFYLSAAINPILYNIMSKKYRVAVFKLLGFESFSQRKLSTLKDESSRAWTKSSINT
compound,measurement,setting,value
"NC1=N[C@H](O)[C@H]2[C@H]3O[C@]4(O)O[C@@H]([C@@H](O)[C@@]2(N1)[C@@H]4O)[C@]3(O)CO [TTX, tetrodotoxin]",effect on ghrelin-induced changes in MP and IR,[1],reduces these ghrelin-induced changes in both MP and IR
CC1=NS(=O)(=O)c2cc(Cl)ccc2N1 [diazoxide],stimulation of an increase in [Ca2+]c,"isolated SUR1-/- neurons; diazoxide 200 μM, neurons from SUR1-/- mice",not
CCCCCCCC(=O)OC[C@H](NC(=O)[C@H](CO)NC(=O)CN)C(=O)N[C@@H](Cc1ccccc1)C(=O)N[C@@H](CC(C)C)C(=O)N[C@@H](CO)C(=O)N1CCC[C@H]1C(=O)N[C@@H](CCC(=O)O)C(=O)N[C@@H](Cc1c[nH]cn1)C(=O)N[C@@H](CCC(N)=O)C(=O)N[C@@H](CCCNC(=N)N)C(=O)N[C@H](C(=O)N[C@@H](CCC(N)=O)C(=O)N[C@@H](CCC(N)=O)C(=O)N[C@@H](CCCNC(=N)N)C(=O)N[C@@H](CCCCN)C(=O)N[C@@H](CCC(=O)O)C(=O)N[C@@H](CO)C(=O)N[C@@H](CCCCN)C(=O)N[C@@H](CCCCN)C(=O)N1CCC[C@H]1C(=O)N1CCC[C@H]1C(=O)N[C@@H](C)C(=O)N[C@@H](CCCCN)C(=O)N[C@@H](CC(C)C)C(=O)N[C@@H](CCC(N)=O)C(=O)N1CCC[C@H]1C(=O)N[C@@H](CCCNC(=N)N)C(=O)O)C(C)C [ghrelin],average IR decrease,[1],-108 ± 60 MΩ
same,ghrelin-induced changes in MP and IR in the presence of TTX,[1],"persistent, albeit diminished"
same,neurons depolarized due to decreases in IR,[1],~ 70%
same,neurons depolarized with increases in IR,[1],7/22
same,average ΔMP (MP +ghrelin minus MP w/o ghrelin),[1]; SD,3.6 ± 1.7 mV
same,effect on [Ca2+]c,isolated SUR1-/- neurons,reversibly stimulated an increase in [Ca^2+]c in a subset of isolated SUR1^-/- neurons
COc1ccc(Cl)cc1C(=O)NCCc1ccc(S(=O)(=O)NC(=O)NC2CCCCC2)cc1 [glibenclamide],effect on ghrelin action,"isolated SUR1-/- neurons; glibenclamide 1 μM, ghrelin 200 pM, neurons from SUR1-/- mice",no significant effect on ghrelin action
Acylated ghrelin (peptide),"EC50 of the rise of [Ca2+]c (fura-2) in isolated NPY-GFP neurons, from averages of the peak heights at each ghrelin concentration",[2],0.11 nM
